The values that follow come from patent publication US9637451B2, “Indole compound” (ASTELLAS PHARMA INC., priority 2014, dated 2017).

One series concerns the target T1, human MT1 receptor (Homo sapiens, UniProt P48039).
T1 construct: expressed in transfected cells
Kind of series: Activation of human MT1 receptor in receptor-expressing cells, intracellular Ca2+ by FLIPR. It counts as cell-based. The note with it: for pEC50: HEK293EBNA1 cells stably expressing human MT1 and Gq/i chimeric G protein, Ca2+ FLIPR; for Emax: maximum reaction by ramelteon taken as 100%.

The target in another series is T2, human MT2 receptor (Homo sapiens, UniProt P49286).
T2 construct: expressed in transfected cells
T2 sequence (P49286 1-362): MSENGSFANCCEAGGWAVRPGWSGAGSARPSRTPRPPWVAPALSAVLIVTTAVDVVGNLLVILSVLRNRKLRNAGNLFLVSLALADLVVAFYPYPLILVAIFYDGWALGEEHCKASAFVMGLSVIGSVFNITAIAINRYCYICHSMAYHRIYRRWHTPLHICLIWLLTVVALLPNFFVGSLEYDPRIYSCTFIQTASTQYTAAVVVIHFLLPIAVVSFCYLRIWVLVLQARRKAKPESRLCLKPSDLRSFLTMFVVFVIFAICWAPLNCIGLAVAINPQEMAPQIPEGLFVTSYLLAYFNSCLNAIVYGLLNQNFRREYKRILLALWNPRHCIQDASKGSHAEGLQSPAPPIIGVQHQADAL
Kind of series: Activation of human MT2 receptor in receptor-expressing cells, intracellular Ca2+ by FLIPR. To be noted: for pEC50: HEK293 cells stably expressing human MT2 and Gq/i chimeric G protein, Ca2+ FLIPR; for Emax: maximum reaction by ramelteon taken as 100%. It counts as cell-based.

The next series relates to SD female rats. The experiment in a line: Effect of test compound on urethral pressure in anesthetized rats. It counts as in vivo, rat. To be noted: dose of 0.01 mg/kg. The source says: SD female rats were anesthetized with urethane and subjected to laparotomy. Then, the bladder apex was incised and a catheter was inserted from the bladder apex. Further, the catheter tip was ligated and fixed to be located in the proximal urethra portion. The catheter was connected to a pressure transducer and an infusion pump. Further, a catheter for administrating the compound was fitted into the femoral vein. Physiological saline was continuously infused into the urethra and the perfusion pressure in the urethra was measured. After the urethral pressure was stabilized, the test compound that had been dissolved in physiological saline, or physiological saline including 5% dimethylacetamide and 0.5% Cremophor was administered intravenously at 0.01 mg/kg or 0.1 mg/kg, and a change in urethral pressures was measured.
Further, the results of administering an active metabolite of midodrine (ST-1059: purchased from CHEMIZON) (J. Urology, 118, 980-982 (1977)) which is an α1 adrenoceptor agonist and is confirmed to have a clinical effect on stress urinary incontinence at doses, 0.01 mg/kg and, 0.1 mg/kg in rats, presumed to correspond to the clinical doses are referenced and shown in the Tables below.
The increment value in the urethral pressures of ramelteon and the Example compounds of the present invention at the time of administration are shown in Table 3. Ex represents Example No. of the test compound and N.T represents Not Tested.

The nature of series [1]: CSF-to-plasma unbound concentration ratio in rat after intravenous administration. The class given is in vivo. The note with it: CSF and plasma (unbound), iv, 15 minutes after intravenous administration. On the procedure:
A test compound (100 μg/mL, 50% acetonitrile solution) at 1% (v/v) with respect to the amount of the plasma was added to rat plasma, and dispensed to a sample for a supernatant and a sample for the plasma. The sample for a supernatant was ultracentrifuged at 436,000×g and 37° C. for 140 minutes, and the sample for the plasma was incubated at 37° C. for 140 minutes.
After 140 minutes, the sample for a supernatant after the ultracentrifugation and the sample for the plasma were taken, and mixed with the blank plasma or the blank supernatant, respectively. Acetonitrile including an internal standard material was added to each of the samples with the removal of protein, and after the centrifugation at 2150×g and 4° C. for 10 minutes the supernatant was injected into LC-MS/MS.
The unbound fraction in the plasma was calculated by the following equation.
To the plasma of a rat was added a test compound (0.2 mM, 50% acetonitrile solution) in an amount corresponding to 1% (v/v) of the plasma amount, and 200 μL of obtained plasma sample was filled into a plasma chamber of a RED device insert. A buffer chamber was filled with 350 μL of PBS, followed by performing equilibrium dialysis by stirring in a CO2 incubator at 37° C. for 16 hours. The sample after the completion of the equilibrium dialysis was recovered and the volume of the plasma sample was measured. To the plasma sample after the completion of the equilibrium dialysis were added PBS, a 20 mM ammonium formate buffer, and acetonitrile including an internal standard material. Similarly, to the PBS sample after the completion of the equilibrium dialysis was added a blank plasma, a 20 mM ammonium formate buffer, and acetonitrile including an internal standard material. This sample was left to stand at 4° C. for 30 minutes and then centrifuged 1500×g for 10 minutes, and the supernatant was measured by LC-MS/MS. The unbound fraction in the plasma was calculated by the following equation. fp=Cf/{(Cp−Cf)(V/V0)+Cf}
At 15 minutes after intravenously administration of the test compound to the rats, the plasma and CSF were collected. A 50% acetonitrile solution and an acetonitrile including internal standard material were added to the collected plasma or CSF. After centrifuging this sample at 4° C. and 2150×g for 10 minutes, the supernatant was measured by LC-MS/MS, and the total concentration of the test compound in the plasma (Cplasma,t) and the concentration of the test compound in CSF (CCSF) were obtained. The unbound concentration in the plasma (Cplasma,u) of the test compound and the CSF-to-plasma unbound concentration ratio (Kp,uu,CSF) of the test compound was calculated by the following equation.
(§1) The Kp,uu,CSF values and the Kp,brain values of ramelteon and some Example compounds of the present invention are shown in Table 4. Ex represents Example No. of the test compound. Unless otherwise specified, the Kp,uu,CSF was calculated using the fp values determined by an ultracentrifugation method. Further, N.T. represents Not Tested.
(Ramelteon represents the values of Kp,uu,CSF after 10 minutes after the intravenous administration. Further, the Kp,uu,CSF of Examples 37 and 38 was calculated using the fp values determined by an equilibrium dialysis method. In addition, N.D. denotes the concentration of the test compound in CSF that is no higher than the detection limit.)

The subject of another series is rat. The experiment in a line: Measurement test of electroencephalogram in rat (sleep-awake cycle). The class given is in vivo. The note with it: oral, any of the doses 3, 30 and 300 mg/kg. The source says:
After the completion of a quarantine period, the animals showing no abnormal health condition were subjected to an electroencephalogram electrode chronic implantation surgery with reference to brain atlas of Pellegrino (Plenum Press, New York (1979)), or the like. Under anesthesia with pentobarbital sodium, the rat was calibrated in a brain stereotaxic apparatus. In the frontal cortex, a monopolar silver ball electrode having a diameter of the tip of about 1 mm was placed on a hard film of the brain. Into the hippocampus, a laminated bipolar electrodes made of stainless steel was stuck. The reference electrode was screwed around the olfactory brain. Further, as for the electromyogram measurement, the lead wire was implanted in the both electrodes about 1 cm between the electrodes in the neck portion. The other end was exposed to the head portion subcutaneously. The electrodes and the lead wires were subjected to soldering with connector sockets and fixed to the skull with a dental resin or the like.
The rats were accommodated in a measurement cage under rat feeding and water supply on the morning of the day of administration, and accustomed to the measurement environment. After measuring the weight using an electronic scale balance, a lead wire and a connector socket were connected 30 minutes or more before the start of the electroencephalogram measurement, and the rat was accustomed in the measurement state under no anesthesia and no custody. The test compounds were intraperitoneally or orally administered to the rats and the electroencephalogram was measured continuously until 6 hours after the administration.
Ramelteon: solvent, 0.1 mg/kg, 1 mg/kg, and 10 mg/kg; intraperitoneal administration
Example 1: solvent, 3 mg/kg, 30 mg/kg, and 300 mg/kg; oral administration
Example 6: solvent, 10 mg/kg, 30 mg/kg, and 300 mg/kg; oral administration
The electrical signals of electroencephalogram and of electromyogram were applied to an electroencephalogram system and an electroencephalogram frequency analysis program of a personal computer was used to acquire the wave form of the electroencephalogram from the electroencephalograph system. In addition, the image signals of the electroencephalogram waveform were applied to an EEG video system and recorded on DVD-R using a DVD recorder. The behavior observation was carried out through a video camera at the same time as the electroencephalogram measurement and the images were also recorded on DVD-R using DVD recorder.
The presence or absence of abnormality in the electroencephalogram waveform in up to 6 hours from immediately after the administration, to each animal, respectively, was observed.
The analysis of a sleep-awake cycle was carried out using a sleep stage display-supporting program (MTS50061B, Japan Santec Corporation) based on the electroencephalogram waveforms acquired with an electroencephalogram frequency analysis program. Using the index of electroencephalogram, electromyogram, and behavior, the sleep steps were classified into an awake phase, a rest phase, a slow wave light sleep (S.W.L.S.) phase, a slow wave deep sleep (S.W.D.S.) phase, and a fast wave sleep (F.W.S., REM sleep) phase. Further, the rest phase, the slow wave light sleep phase, and the slow wave deep sleep phase were summed to determine a slow wave sleep (S.W.S., Non-REM sleep) phase. […] As the assessment criteria in the respective sleep steps, the criteria described in Japanese Pharmacological Journal 84, 25-89 (1984) were used.

Series [2] is described as follows: Brain-to-plasma concentration ratio in rat after intravenous administration. The class given is in vivo. To be noted: brain and plasma, 15 minutes after intravenous administration. On the procedure:
At 15 minutes after intravenously administration of the test compound to the rats, the plasma and brain were collected. A 50% acetonitrile solution and an acetonitrile including internal standard material were added to the collected plasma. The collected brain was added to a 2-fold volume of PBS and homogenized. A 50% acetonitrile solution and an acetonitrile including internal standard material were added to the brain homogenate. The sample was centrifuged at 4° C. and 2150×g for 10 minutes, the supernatant was measured by LC-MS/MS, and the total concentration of the test compound in the brain (Cbrain) and the total concentration of the test compound in the plasma (Cplasma,t) were obtained. The brain-to-plasma concentrations ratio (Kp,brain) was calculated by the following equation.
as §1

Series [3] relates to isolated urethra in a rat. To be noted: Patent Document 5; cited from earlier work.
Setting [4] is: fp by ultracentrifugation method.
Where [5] appears, read: fp by equilibrium dialysis method.

pEC50: −log10 of the molar value.

T1 sequence (P48039 whole entry): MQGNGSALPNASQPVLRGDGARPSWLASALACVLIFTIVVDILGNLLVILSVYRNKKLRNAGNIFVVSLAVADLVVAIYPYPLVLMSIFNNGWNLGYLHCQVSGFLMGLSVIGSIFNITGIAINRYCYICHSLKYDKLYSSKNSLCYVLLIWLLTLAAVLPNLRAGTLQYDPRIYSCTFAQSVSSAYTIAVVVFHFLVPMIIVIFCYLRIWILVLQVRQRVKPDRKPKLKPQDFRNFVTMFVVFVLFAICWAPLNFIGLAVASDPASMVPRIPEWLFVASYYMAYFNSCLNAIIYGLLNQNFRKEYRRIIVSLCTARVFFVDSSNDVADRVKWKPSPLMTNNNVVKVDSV

`CCC(=O)NCCc1c(C)[nH]c2ccc(OCCOc3ccn(C)n3)cc12` [Example 1, N-[2-{2-methyl-5-(2-[(1-methyl-1H-pyrazol-3-yl)oxy]ethoxy}-1H-indol-3-yl)ethyl]propanamide]: on human MT1 receptor, the negative logarithm of the EC50 (pEC50) – broadly, the EC50 on a negative log10 scale, so that one unit is a factor of ten – was 8.41 and the Emax (as a rule, the greatest response seen or fitted, relative to the assay's reference) turned out to be 95%. At human MT2 receptor, this molecule gave a negative-log EC50 (pEC50) of 7.85 and an Emax of 119%. The “urethral pressure increasing action” value in the series on SD female rats is “good urethral pressure increasing action”. For the same molecule, the Kp uu at 0.25 h in series [1] (setting [4]) was determined as 0.05. Further, in the series on rat, the “occupancy in the respective sleep steps of electroencephalogram” value is “no change in the occupancy in the respective sleep steps of electroencephalogram could be seen” and the sleep action result is on record as “there was no sleep action”.
With `CC(=O)NCCc1c(C)[nH]c2ccc(OCCOc3ccnc(C)c3)cc12` [Example 18, N-[2-(2-methyl-5-{2-[(2-methylpyridin-4-yl)oxy]ethoxy}-1H-indol-3-yl)ethyl]acetamide], at human MT1 receptor, the pEC50 was 8.11 and the Emax was found to be 89%. At human MT2 receptor, this molecule gave a pEC50 of 7.68 and an Emax of 123%. For the same molecule, the Kp uu at 0.25 h in series [1] (setting [4]) was found to be 0.11. Also, the Kp (commonly tissue or fluid exposure divided by exposure in the circulation) at 0.25 h in series [2] came to 0.03.
As for `CNC(=O)NCCc1c[nH]c2ccc(OCCOc3ccc(OC)nc3)cc12` [Example 23, 1-[2-(5-{2-[(6-methoxypyridin-3-yl)oxy]ethoxy}-1H-indol-3-yl)ethyl]-3-methylurea], at human MT1 receptor, the pEC50 was 7.68 and the Emax was 87%. Moreover, at human MT2 receptor, the pEC50 was 7.27 and the Emax came to 68%. Moreover, the Kp uu at 0.25 h in series [1] (setting [4]) amounted to 0.04. The Kp at 0.25 h in series [2] stood at 0.03.
On to `CC(=O)NC[C@H](C)c1c[nH]c2cc(F)c(OCCOc3ccn(C)n3)cc12` [Example 37, N-[(2R)-2-(6-fluoro-5-{2-[(1-methyl-1H-pyrazol-3-yl)oxy]ethoxy}-1H-indol-3-yl)propyl]acetamide], for which, at human MT1 receptor, the pEC50 was 8.68 and the Emax came to 105%. Moreover, on human MT2 receptor, the pEC50 was 8.15 and the Emax came to 104%. Besides, the Kp uu at 0.25 h in series [1] (setting [5]) was 0.08. In addition, in series [2], the Kp at 0.25 h was 0.01.
Take `CC(=O)NC[C@H](C)c1c[nH]c2cc(Cl)c(OCCOc3ccn(C)n3)cc12` [Example 38, N-[(2R)-2-(6-chloro-5-{2-[(1-methyl-1H-pyrazol-3-yl)oxy]ethoxy}-1H-indol-3-yl)propyl]acetamide]: the negative-log EC50 (pEC50) was 8.70 on human MT1 receptor and 7.89 at human MT2 receptor. Moreover, the figures for the Emax on human MT1 receptor and at human MT2 receptor were 97% and 105%, respectively. Moreover, the Kp uu at 0.25 h in series [1] (setting [5]) was determined as 0.08. Besides, the Kp at 0.25 h in series [2] worked out at 0.02.
With `COc1ccc2[nH]cc(CCNC(C)=O)c2c1` [Melatonin, melatonin], the “contraction of isolated urethra, increase of urethral pressure” value (“contraction … increase of urethral pressure” below) in series [3] is “contract the isolated urethra in a rat to increase the urethral pressure of the rat”.
On to `COc1cc2c([C@@H](C)CNC(C)=O)c[nH]c2cc1Cl` [TIK-301], for which the “contraction … increase of urethral pressure” value in series [3] is given as “contract the isolated urethra in a rat to increase the urethral pressure of the rat”.
Consider `COc1ccc2cccc(CCNC(C)=O)c2c1` [agomelatine], for which the “contraction … increase of urethral pressure” value in series [3] is on record as “contract the isolated urethra in a rat to increase the urethral pressure of the rat”.
Take `CCC(=O)NC[C@@H]1C[C@H]1c1cccc2c1CCO2` [tasimelteon]: in series [3], the “contraction … increase of urethral pressure” value was “contract the isolated urethra in a rat to increase the urethral pressure of the rat”.
